Source: PMC3890692 (ACS medicinal chemistry letters, 2013)

Legend:
[1] = Mouse pharmacokinetic study, intraperitoneal
B. anthracis (Sterne) = conditions: mice infected with a lethal dose of B. anthracis (Sterne); cited from earlier work
[2] = following a single dose, i.p., mice

In the case of `O=C([O-])[C@H](Cc1ccccc1)N1C(=O)/C(=C\c2ccc(-c3ccc(Cl)c(Cl)c3)o2)NC1=S.[Na+]` [Compound 12-ES-Na], the Cl ([1]; Group 1, 25 mg/kg i.p., CD-1 female mice) is reported as 2.33 mL/min/kg, the Cl ([1]; Group 2, 50 mg/kg i.p., CD-1 female mice) is reported as 1.67 mL/min/kg and the Cl ([1]; Group 3, 100 mg/kg i.p., CD-1 female mice) is reported as 0.917 mL/min/kg. The “mortality and clinical observations” value ([1]; dosage below 100 mg/kg, i.p., CD-1 female mice) was “no mortality and no significant clinical observations”, the “AUC relative to the MIC” value [1, 2] was “more than 200 fold” and the “time of concentration above MIC” value [1, 2] was “more than 10 hours”. The clearance ([1]; rodent PK profile, i.p., mice) was ~ 100 mL/h/kg and the “prevention of mortality / block of infection” value (B. anthracis (Sterne)) was “can effectively block Bacillus anthracis infection in mice”.
